The source of these data is patent US12403137B2, “Compounds and methods of use” (Tango Therapeutics, Inc., priority 2019, dated 2025).

Some results are limits rather than exact numbers.

Assay [1] deals with HAP1 MTAP-deleted cell line. As to the kind of experiment: SDMA in-cell western assay, HAP1 MTAP-deleted. It is filed as cell-based. The following applies: for IC50: Homo sapiens, HAP1 MTAP-deleted (MTAP-null) cell line; for MTAP Intact/Deleted Ratio: IC50 ratio HAP1 MTAP-intact / HAP1 MTAP-deleted, >=3 fold considered MTAP-selective. In a few lines:
(§1)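 IC50 values come from an SDMA in-cell western run in isogenic HAP1 cells, either MTAP-null or expressing endogenous MTAP. The intact-to-deleted IC50 ratio is used to score MTAP selectivity.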

In assay [2] the target is T1, PRMT5 (Homo sapiens, UniProt O14744).
T1 construct: purchased Viva (custom protein)
T1 sequence (O14744 whole entry): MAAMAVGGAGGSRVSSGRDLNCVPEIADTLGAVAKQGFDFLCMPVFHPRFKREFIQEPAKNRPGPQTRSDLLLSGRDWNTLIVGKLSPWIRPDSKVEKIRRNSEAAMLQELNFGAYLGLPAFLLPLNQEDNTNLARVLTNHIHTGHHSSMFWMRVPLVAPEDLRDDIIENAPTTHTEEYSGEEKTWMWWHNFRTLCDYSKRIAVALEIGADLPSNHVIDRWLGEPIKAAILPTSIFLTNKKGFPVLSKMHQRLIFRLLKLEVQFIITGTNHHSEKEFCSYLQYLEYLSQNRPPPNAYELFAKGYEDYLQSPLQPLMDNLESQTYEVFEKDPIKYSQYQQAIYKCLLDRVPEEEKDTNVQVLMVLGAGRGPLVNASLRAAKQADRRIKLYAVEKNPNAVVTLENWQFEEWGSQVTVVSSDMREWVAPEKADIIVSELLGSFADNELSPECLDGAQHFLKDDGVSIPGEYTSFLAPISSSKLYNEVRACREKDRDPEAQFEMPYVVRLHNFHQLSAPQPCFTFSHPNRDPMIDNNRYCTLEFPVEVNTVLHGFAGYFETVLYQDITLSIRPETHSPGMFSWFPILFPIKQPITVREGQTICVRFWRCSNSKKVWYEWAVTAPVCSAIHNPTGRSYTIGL
T1 sequence (Q9BQA1 whole entry partner): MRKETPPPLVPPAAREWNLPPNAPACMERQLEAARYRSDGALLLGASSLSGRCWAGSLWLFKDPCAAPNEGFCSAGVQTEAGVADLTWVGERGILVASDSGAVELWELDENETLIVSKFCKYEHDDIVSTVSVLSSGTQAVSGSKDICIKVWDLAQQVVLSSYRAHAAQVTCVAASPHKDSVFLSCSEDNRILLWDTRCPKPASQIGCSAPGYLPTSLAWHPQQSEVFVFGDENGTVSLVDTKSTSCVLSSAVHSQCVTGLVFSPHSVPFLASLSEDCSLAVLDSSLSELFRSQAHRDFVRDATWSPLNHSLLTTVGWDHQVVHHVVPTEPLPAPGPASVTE
Description: PRMT5 inhibition assay with SAM as cofactor. The assay is classed as biochemical. The following applies: against PRMT5 in the presence of SAM as cofactor. The source says:
(§2) The Ki values can be calculated from the IC50 values as described in the Examples section. As detailed in the Examples section, for the assay performed in the presence of SAM, IC50=Ki×1.5 (Ki=IC50/1.5). For the assay performed in the presence of MTA, IC50=Ki×13.5 (Ki=IC50/13.5). Column 6 indicates the ratio between the Ki of compounds in the presence of SAM and the Ki of compounds in the presence of MTA

For assay [3], the target named is T1, PRMT5. Description: PRMT5 inhibition assay with MTA as cofactor. The assay is classed as biochemical. The following applies: for IC50: against PRMT5 with MTA as cofactor; for SAM/MTA Ratio: ratio of Ki in the presence of SAM to Ki in the presence of MTA, Ki=IC50/1.5 (SAM), Ki=IC50/13.5 (MTA).
Excerpt: as §2

The subject of assay [4] is HAP1 MTAP-intact cell line. Description: SDMA in-cell western assay, HAP1 MTAP-intact. The following applies: Homo sapiens. It is filed as cell-based. In a few lines: as §1
In assay [5] the target is T1, PRMT5. Description: PRMT5 inhibition assay with no cofactor. It is filed as biochemical. To be noted: against PRMT5 with no cofactor; read-out: No Co-factor IC50.

`CC(=O)N1CC(Nc2cc(C(=O)NC[C@@H](O)[C@@H]3Cc4ccc(OCc5ocnc5C)cc4CN3)nc(N3CC4CC(C4)C3)n2)C1` [Compound 51, 6-[(1-acetylazetidin-3-yl)amino]-2-(3-azabicyclo[3.1.1]heptan-3-yl)-N-[(2R)-2-hydroxy-2-[(3S)-7-[(4-methyloxazol-5-yl)methoxy]-1,2,3,4-tetrahydroisoquinolin-3-yl]ethyl]pyrimidine-4-carboxamide]: the concentration for half-maximal inhibition (IC50) is below 1000 nM in assay [1]; 50 to 500 nM at PRMT5 [2]; below 50 nM at PRMT5 [3]; 1000 to 10000 nM in assay [4]; 50 to 500 nM on PRMT5 [5]. The “MTAP Intact/Deleted Ratio” value in assay [1] was “A* (an IC50 ratio greater than or equal to 10 fold between the IC50 in the HAP1 MTAP-intact cell line and the HAP1 MTAP-deleted cell line)”. Also, at PRMT5 [3], the “SAM/MTA Ratio” value is “A (a Ki ratio greater than or equal to 10 fold between the Ki in the presence of SAM and the Ki in the presence of MTA)”.
As to `Cc1ncoc1COc1ccc2c(c1)CN[C@H]([C@H](O)CNC(=O)c1cc(NC3CCC3)nc(N3CCN(C)CC3)c1)C2` [Compound 52, 2-(cyclobutylamino)-N-[(2R)-2-hydroxy-2-[(3S)-7-[(4-methyloxazol-5-yl)methoxy]-1,2,3,4-tetrahydroisoquinolin-3-yl]ethyl]-6-(4-methylpiperazin-1-yl)pyridine-4-carboxamide], the IC50 was below 1000 nM in assay [1]; 50 to 500 nM on PRMT5 [2]; below 50 nM against PRMT5 [3]; below 1000 nM in assay [4]; 50 to 500 nM at PRMT5 [5]. Also, the “MTAP Intact/Deleted Ratio” value in assay [1] is “A* (an IC50 ratio greater than or equal to 10 fold between the IC50 in the HAP1 MTAP-intact cell line and the HAP1 MTAP-deleted cell line)”. In addition, the “SAM/MTA Ratio” value at PRMT5 [3] is “A (a Ki ratio greater than or equal to 10 fold between the Ki in the presence of SAM and the Ki in the presence of MTA)”.
As for `CC(=O)N1CC(Nc2cc(C(=O)NC[C@@H](O)[C@@H]3Cc4ccc(OCc5ocnc5C)cc4CN3)nc(N3CC4CCC3C4)n2)C1` (stereo partly drawn) [Compound 53, 6-[(1-acetylazetidin-3-yl)amino]-2-(3-azabicyclo[2.2.1]heptan-3-yl)-N-[(2R)-2-hydroxy-2-[(3S)-7-[(4-methyloxazol-5-yl)methoxy]-1,2,3,4-tetrahydroisoquinolin-3-yl]ethyl]pyrimidine-4-carboxamide], the IC50 was below 1000 nM in assay [1]; 50 to 500 nM on PRMT5 [2]; below 50 nM at PRMT5 [3]; 1000 to 10000 nM in assay [4]; 50 to 500 nM at PRMT5 [5]. The “MTAP Intact/Deleted Ratio” value in assay [1] is “A* (an IC50 ratio greater than or equal to 10 fold between the IC50 in the HAP1 MTAP-intact cell line and the HAP1 MTAP-deleted cell line)”. Also, the “SAM/MTA Ratio” value at PRMT5 [3] was “A (a Ki ratio greater than or equal to 10 fold between the Ki in the presence of SAM and the Ki in the presence of MTA)”.
As to `CC(=O)N1CCC(Nc2cc(C(=O)NC[C@@H](O)[C@@H]3Cc4ccc(OCc5ocnc5C)cc4CN3)cc(N3CCN(C)CC3)n2)CC1` [Compound 54, 2-[(1-acetyl-4-piperidyl)amino]-N-[(2R)-2-hydroxy-2-[(3S)-7-[(4-methyloxazol-5-yl)methoxy]-1,2,3,4-tetrahydroisoquinolin-3-yl]ethyl]-6-(4-methylpiperazin-1-yl)pyridine-4-carboxamide], the IC50 was 1000 to 10000 nM in assay [1]; 50 to 500 nM at PRMT5 [2]; below 50 nM against PRMT5 [3]; at least 10000 nM in assay [4]; 50 to 500 nM on PRMT5 [5]. The “MTAP Intact/Deleted Ratio” value in assay [1] was “C* (an IC50 ratio of less than 3 fold between the IC50 in the HAP1 MTAP-intact cell line and the HAP1 MTAP-deleted cell line)”. The “SAM/MTA Ratio” value at PRMT5 [3] is “A (a Ki ratio greater than or equal to 10 fold between the Ki in the presence of SAM and the Ki in the presence of MTA)”.
Take `CCN1CCN(c2cc(C(=O)NC[C@@H](O)[C@@H]3Cc4ccc(OCc5ocnc5C)cc4CN3)cc(NC3CCC3)n2)CC1` [Compound 55, 2-(cyclobutylamino)-6-(4-ethylpiperazin-1-yl)-N-[(2R)-2-hydroxy-2-[(3S)-7-[(4-methyloxazol-5-yl)methoxy]-1,2,3,4-tetrahydroisoquinolin-3-yl]ethyl]pyridine-4-carboxamide]: the IC50 is below 1000 nM in assay [1]; 50 to 500 nM on PRMT5 [2]; below 50 nM on PRMT5 [3]; below 1000 nM in assay [4]; 50 to 500 nM at PRMT5 [5]. In assay [1], the “MTAP Intact/Deleted Ratio” value was “B* (an IC50 ratio greater than or equal to 3 fold but lower than 10 fold between the IC50 in the HAP1 MTAP-intact cell line and the HAP1 MTAP-deleted cell line)”. Moreover, the “SAM/MTA Ratio” value on PRMT5 [3] is “A (a Ki ratio greater than or equal to 10 fold between the Ki in the presence of SAM and the Ki in the presence of MTA)”.
`CC(=O)N1CC(Nc2cc(C(=O)NC[C@@H](O)[C@@H]3Cc4ccc(OCc5ocnc5C)cc4CN3)nc(N3CC4CCC(C4)C3)n2)C1` [Compound 56, 6-[(1-acetylazetidin-3-yl)amino]-2-(3-azabicyclo[3.2.1]octan-3-yl)-N-[(2R)-2-hydroxy-2-[(3S)-7-[(4-methyloxazol-5-yl)methoxy]-1,2,3,4-tetrahydroisoquinolin-3-yl]ethyl]pyrimidine-4-carboxamide]: the IC50 was below 1000 nM in assay [1]; 50 to 500 nM at PRMT5 [2]; below 50 nM at PRMT5 [3]; 1000 to 10000 nM in assay [4]; 50 to 500 nM on PRMT5 [5]. Besides, in assay [1], the “MTAP Intact/Deleted Ratio” value was “A* (an IC50 ratio greater than or equal to 10 fold between the IC50 in the HAP1 MTAP-intact cell line and the HAP1 MTAP-deleted cell line)”. Also, the “SAM/MTA Ratio” value at PRMT5 [3] is “A (a Ki ratio greater than or equal to 10 fold between the Ki in the presence of SAM and the Ki in the presence of MTA)”.
Take `Cc1ncoc1COc1ccc2c(c1)CN[C@H]([C@H](O)CNC(=O)c1cc(NC3CC4(CCC4)C3)nc(N3CCCCC3)n1)C2` [Compound 57, N-[(2R)-2-hydroxy-2-[(3S)-7-[(4-methyloxazol-5-yl)methoxy]-1,2,3,4-tetrahydroisoquinolin-3-yl]ethyl]-2-(1-piperidyl)-6-(spiro[3.3]heptan-2-ylamino)pyrimidine-4-carboxamide]: the IC50 is below 1000 nM in assay [1]; 50 to 500 nM on PRMT5 [2]; 50 to 500 nM at PRMT5 [3]; 1000 to 10000 nM in assay [4]; 50 to 500 nM on PRMT5 [5]. Also, the “MTAP Intact/Deleted Ratio” value in assay [1] is “A* (an IC50 ratio greater than or equal to 10 fold between the IC50 in the HAP1 MTAP-intact cell line and the HAP1 MTAP-deleted cell line)”. For the same compound, the “SAM/MTA Ratio” value at PRMT5 [3] was “A (a Ki ratio greater than or equal to 10 fold between the Ki in the presence of SAM and the Ki in the presence of MTA)”.
In the case of `Cc1ncoc1COc1ccc2c(c1)CN[C@H]([C@H](O)CNC(=O)c1cc(NC3CCC3)cc(N3CCCCC3)c1)C2` [Compound 58, 3-(cyclobutylamino)-N-[(2R)-2-hydroxy-2-[(3S)-7-[(4-methyloxazol-5-yl)methoxy]-1,2,3,4-tetrahydroisoquinolin-3-yl]ethyl]-5-(1-piperidyl)benzamide], the IC50 was below 1000 nM in assay [1]; 50 to 500 nM at PRMT5 [2]; below 50 nM on PRMT5 [3]; 1000 to 10000 nM in assay [4]; 50 to 500 nM at PRMT5 [5]. For the same compound, in assay [1], the “MTAP Intact/Deleted Ratio” value was “A* (an IC50 ratio greater than or equal to 10 fold between the IC50 in the HAP1 MTAP-intact cell line and the HAP1 MTAP-deleted cell line)”. For the same compound, the “SAM/MTA Ratio” value on PRMT5 [3] was “A (a Ki ratio greater than or equal to 10 fold between the Ki in the presence of SAM and the Ki in the presence of MTA)”.
